Data published in publication PMC7312485, “Lessons on the Sigma-1 Receptor in TNBS-Induced Rat Colitis: Modulation of the UCHL-1, IL-6 Pathway” (International Journal of Molecular Sciences, 2020).

Key:
NF-κB p65 subunit = assay: Western blot of NF-κB p65 expression in colon, TNBS colitis; format: in vivo, rat; settings: TNBS group 0.83 ± 0.09
Experimental: (§1) Male Wistar–Harlan rats (225–250 g) were purchased from Toxicoop Ltd. (Dunakeszi, Hungary) and housed in a room with acclimatized temperature under 12h day/night cycles with food and water ad libitum. Animals were randomly divided into 3 groups: absolute control (no treatment, n = 12), 50% EtOH (ethanol enema, n = 12), and TNBS (10 mg dissolved in 50% Ethanol, n = 85). Colitis was assessed following Morris’ method. Animals fasted overnight and a TNBS enema was administered intracolonically (i.c.) with an 8cm long polyethylene canulla through the anus under mild anesthesia (Thiopental, i.p. 40 mg/kg). […]
(§2) In total, 30 mg from each powdered sample was measured and suspended in RIPA buffer (Merck Millipore, Burlington, MA, USA) supplemented with phenylmethylsulfonyl fluoride (PMSF) (Sigma-Aldrich, Budapest, Hungary); 1/10 of the final volume. […] The supernatant was collected and protein concentration was determined by using a Bradford assay and bovine serum albumin as a standard. […] Results were analyzed using Quantity One Software version 4.5 (Bio-Rad Laboratories, Hercules, CA, USA). […]

[1] = system: myeloperoxidase enzyme (MPO); assay: Myeloperoxidase activity in colon, TNBS colitis; format: in vivo, rat
Experimental: (§3) Animals were randomly divided into 3 groups: absolute control (no treatment, n = 12), 50% EtOH (ethanol enema, n = 12), and TNBS (10 mg dissolved in 50% Ethanol, n = 85). Colitis was assessed following Morris’ method. Animals fasted overnight and a TNBS enema was administered intracolonically (i.c.) with an 8cm long polyethylene canulla through the anus under mild anesthesia (Thiopental, i.p. 40 mg/kg). […] Animals were fasted for 5 h each day before i.c. treatments.
(§4) After 72 h of TNBS administration, euthanized animals (Thiopental, i.p. 100 mg/kg) were sacrificed and the last 8 cm portion of the colon was removed, gently opened, rinsed in physiological saline and photographed for further macroscopic analysis. Then, the colon segments were frozen in liquid nitrogen. Frozen colon tissues were powdered in liquid nitrogen by using a porcelain mortar and pestle and kept at −80 °C until used for biochemical measurements.
To further break the membranes, three freeze–thaw cycles were applied in liquid nitrogen and a 37 °C water bath. Homogenates then were centrifuged at 10,000× g for 15 min at 4 °C. […] The reaction was started with the addition of 10 µL 0.03% hydrogen peroxide (H2O2). After shaking for 90 s, MPO activity was assayed spectrophotometrically at 490 nm (Benchmark Microplate Reader, Bio-Rad Laboratories, Hercules, CA, USA). MPO activity was expressed as uU/mg protein.

HMGB1 = assay: Western blot of HMGB1 expression in colon, TNBS colitis; format: in vivo, rat; settings: TNBS group 1.75 ± 0.165
Experimental: as §1, §2

IL-6 = IL-6 levels in colon by ELISA, TNBS colitis; format: in vivo, rat
Experimental: as §1
(§5) To determine the tissue levels of IL-6 and eNOS in the colon, we used double-antibody sandwich ELISA kits specific for rat IL-6 or eNOS. eNOS kit was purchased from MyBioSource (MBS721860; San Diego, CA, USA) and IL-6 was purchased from GenAsia Biotech Co., Ltd. (Shanghai, China). […] Parameters were measured according to the manufacturer’s instructions and protocols, and optical densities (OD) were assayed at λ = 450 nm. […]

sigma-1 receptor (σ1R) [2] = assay: Western blot of sigma-1 receptor expression in colon, TNBS colitis; format: in vivo, rat
Experimental: as §1, §2

TNBS-induced rat colitis = assay: Severity of inflammation (macroscopic lesion area by planimetry) in TNBS-induced colitis; format: in vivo; settings: TNBS group 61.68 ± […]
Experimental: as §3, §4
The extent of macroscopically apparent inflammation, ulceration and tissue disruption was determined in a randomized manner from the colored images, using proprietary computerized planimetry software which was developed in our laboratory (Stat_2_1_1, Szeged, Hungary) and is based on planimetrics. The area of macroscopically visible mucosal damage was calculated and expressed as a % of the total studied 8 cm colonic segment.

[3] = system: heme oxygenase enzyme (HO); assay: Heme oxygenase activity (bilirubin formation) in colon, TNBS colitis; format: in vivo, rat; settings: TNBS group 0.26 ± 0.03
Experimental: as §3, §4

iNOS = assay: Western blot of iNOS expression in colon, TNBS colitis; format: in vivo, rat
Experimental: as §1, §2

eNOS = eNOS levels in colon by ELISA, TNBS colitis; format: in vivo, rat; settings: FLV 1 mg/kg i.c.; TNBS group 2.62 ± 0.126
Experimental: as §1, §5

UCHL-1 = assay: Western blot of UCHL-1 expression in colon, TNBS colitis; format: in vivo, rat; settings: FLV 1 mg/kg i.c.; TNBS group 1.23 ± 0.16
Experimental: as §1, §2

sigma-1 receptor (σ1R) [4] = biological target: T1, sigma-1 receptor (σ1R) (Rattus norvegicus, UniProt Q9R0C9); assay: [3H](+)-pentazocine saturation binding in rat colon membranes; settings: TNBS-induced colitis rat colon membranes after 1 mg/kg FLV administration (TNBS + FLV)
T1 construct: from tissue; host or cells: rat colon membrane homogenate (male Wistar–Harlan rats; control, TNBS, 50% EtOH, TNBS + FLV treated)
T1 sequence (Q9R0C9 whole entry): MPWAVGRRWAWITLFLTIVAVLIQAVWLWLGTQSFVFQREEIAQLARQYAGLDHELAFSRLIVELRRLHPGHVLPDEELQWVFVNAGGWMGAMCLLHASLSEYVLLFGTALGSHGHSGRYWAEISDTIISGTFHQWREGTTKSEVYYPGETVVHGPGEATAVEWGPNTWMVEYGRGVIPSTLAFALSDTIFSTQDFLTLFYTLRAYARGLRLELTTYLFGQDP
Experimental: The homogenate was centrifuged at 17,000× g for 10 min (4 °C).
The incubation was terminated by diluting the samples with an ice-cold wash buffer (50 mM of Tris–HCl, pH 8.0), followed by repeated washing and rapid filtration through Whatman GF/B glass fiber filters (Whatman Ltd., Maidstone, UK) presoaked with 0.1% polyethyleneimine. Filtration was performed with a 24-well Brandel Cell Harvester (Gaithersburg, MD, USA). Filters were air-dried and immersed into Ultima Gold MV scintillation cocktail, and then radioactivity was measured with a TRI-CARB 2100TR liquid scintillation analyzer (Packard, Perkin Elmer, Waltham, MA, USA).
All data are presented as mean ± SEM. […] In competition binding studies, the inhibitory constants (Ki) were calculated from the inflection points of the displacement curves using nonlinear least-square curve fitting and the Cheng–Prusoff equation, Ki = EC50/(1 + [ligand]/Kd).

Compound: CN1CCN(CCc2ccc(Cl)c(Cl)c2)CC1 [BD1063]
- NF-κB p65 subunit expression (normalized to β-actin) (NF-κB p65 subunit; BD1063 0.1 mg/kg i.c.): 0.48 ± 0.03 relative expression
- MPO activity vs. TNBS group ([1]; BD1063 0.1 mg/kg i.c.): didn’t affect the activity of the MPO
- HMGB1 expression (normalized to β-actin) (HMGB1; BD1063 0.1 mg/kg i.c.): 1.305 ± 0.044 relative expressions
- IL-6 levels vs. TNBS group (IL-6; BD1063 0.1 mg/kg i.c.): didn’t affect IL-6 levels
- σ1R expression vs. TNBS group (sigma-1 receptor (σ1R) [2]; BD1063 0.1 mg/kg i.c.): didn’t affect the expression of the receptor
- Severity of inflammation (area of mucosal damage, % of 8 cm colonic segment) (TNBS-induced rat colitis; 0.1 mg/kg BD1063 i.c. once a day): 76.77 ± 2.52%
- HO enzyme activity ([3]; BD1063 0.1 mg/kg i.c.): 0.40 ± 0.04 nmol bilirubin/h/mg protein
- iNOS expression vs. TNBS group (iNOS; BD1063 0.1 mg/kg i.c.): did not alter the expression of iNOS

Compound: COCCCC/C(=N\OCCN)c1ccc(C(F)(F)F)cc1 [FLV, Fluvoxamine]
- NF-κB p65 subunit expression (normalized to β-actin) (NF-κB p65 subunit; FLV 1 mg/kg i.c.): 0.52 ± 0.04 relative expression
- MPO activity ([1]; FLV 1 mg/kg i.c., TNBS group 42653.4 ± 3220.24): 25021.2 ± 2554.66 uU/mg protein
- HMGB1 expression (normalized to β-actin) (HMGB1; FLV 1 mg/kg i.c.): 1.264 ± 0.07 relative expressions
- eNOS levels (eNOS): 4.21 ± 0.66 relative expression
- IL-6 levels in colon (IL-6; FLV 1 mg/kg i.c., TNBS group 60.48 ± 4.55): 30.53 ± 4.10 ng/L
- UCHL-1 expression (normalized to β-actin) (UCHL-1): 2.104 ± 0.13 relative expression
- σ1R expression (normalized to β-actin) (sigma-1 receptor (σ1R) [2]; FLV 1 mg/kg i.c., TNBS group 0.326 ± 0.05): 0.72 ± 0.083 relative expression
- Severity of inflammation (area of mucosal damage, % of 8 cm colonic segment) (TNBS-induced rat colitis; 0.1 mg/kg FLV i.c. once a day, 72 h after TNBS): 41.23 ± 5.76%
- Severity of inflammation (area of mucosal damage, % of 8 cm colonic segment) (TNBS-induced rat colitis; 1 mg/kg i.c. once a day, 72 h after TNBS): 28.29 ± 2.53%
- HO enzyme activity ([3]; FLV 1 mg/kg i.c.): 0.40 ± 0.03 nmol bilirubin/h/mg protein
- Bmax ± S.E.M., saturation binding (σ1R density) (sigma-1 receptor (σ1R) [4]): 134 ± 14 fmol/mg
- iNOS expression (normalized to β-actin) (iNOS; FLV 1 mg/kg i.c., TNBS group 0.53 ± 0.02): 0.255 ± 0.11 relative expression

Compound: O=C(O)c1cc(/N=N/c2ccc(S(=O)(=O)Nc3ccccn3)cc2)ccc1O [SASP, Sulfasalazine]
- Severity of inflammation (area of mucosal damage, % of 8 cm colonic segment) (TNBS-induced rat colitis; positive control, 2 × 25 mg/kg per os): 35.78 ± 2.83%
